Here are results for 10 compounds from PubChem BioAssay AID588512 (NMMLSC, 2011).

SMILES strings stand for the structures. Active and inactive are the calls of the source.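 The calls were made as follows: active = viability below 80%, counted as toxic; inactive = the rest.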

The test system of this assay is HEK-293 viability, CellTiter-Glo ATP luminescence, 3 days. In words: HEK-293 cell cytotoxicity, late-stage follow-up, cytotoxicity control for GRK2 aptamer-displacement inhibitor project, powder set 1 (AID 588512). The settings on record: at 20 µM; hits give low values.
`Cc1cc2ccccc2n1CCNC(=O)c1cccs1`: the viability is 109% (inactive). With `CCc1ccccc1NC(=O)CCS(=O)(=O)c1ccc(Br)cc1`, the viability was 82.6% (inactive). As to `Cc1ccccc1NC(=O)CCS(=O)(=O)c1ccc(Br)cc1`, the viability was 128% (inactive). Turning to `O=C(CCS(=O)(=O)c1ccc(Br)cc1)Nc1cc(F)ccc1F`, the viability is 110% (inactive). `Cc1cc(=O)[nH]c(SCC(=O)NCc2ccco2)n1`: the viability is 69.3%.

Take `Cc1cccc(N2CCN(C(=O)CCS(=O)(=O)c3ccc(Br)cc3)CC2C)c1` (stereo not given): the viability is 113% (inactive).

Turning to `O=C(O)C1CC(=O)N(c2ccc3c(c2)OCCO3)C1` (stereo not given), the viability was 133% (inactive). For the compound `COc1ccc(CNC(=O)CCS(=O)(=O)c2ccc(Br)cc2)cc1`, the viability was 95.2% (inactive).

With `O=C(CCS(=O)(=O)c1ccc(Br)cc1)NCCc1ccc(Cl)cc1`, the viability is 124% (inactive).

`CCOc1ccc(CCNC(=O)CCS(=O)(=O)c2ccc(Br)cc2)cc1OCC`: the viability was 123% (inactive).
